Results on 7 compounds are retold here after paper PMC6199744, “Development of Chemical Proteomics for the Folateome and Analysis of the Kinetoplastid Folateome” (ACS Infectious Diseases, 2018).

Type in all cases: binding
Assay [1] deals with T1, HeLa cell extract proteins (Homo sapiens, UniProt Q8IUH3).
T1 construct: endogenous in cells; host or cells: HeLa cell extract
T1 sequence (Q8IUH3 1-476): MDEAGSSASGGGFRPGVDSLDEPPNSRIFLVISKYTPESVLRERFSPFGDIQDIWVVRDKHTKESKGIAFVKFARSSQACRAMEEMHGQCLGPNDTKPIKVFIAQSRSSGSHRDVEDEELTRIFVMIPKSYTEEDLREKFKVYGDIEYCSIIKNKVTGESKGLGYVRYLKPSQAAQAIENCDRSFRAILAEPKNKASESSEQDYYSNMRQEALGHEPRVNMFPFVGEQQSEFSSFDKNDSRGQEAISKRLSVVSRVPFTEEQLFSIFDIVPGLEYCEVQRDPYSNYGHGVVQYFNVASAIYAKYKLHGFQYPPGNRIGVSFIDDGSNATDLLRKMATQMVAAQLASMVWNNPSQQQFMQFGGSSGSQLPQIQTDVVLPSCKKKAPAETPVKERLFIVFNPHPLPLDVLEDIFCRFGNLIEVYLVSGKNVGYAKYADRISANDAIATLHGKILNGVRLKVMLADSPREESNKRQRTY

Assay [2] addresses T2, HeLa cell extract proteins (Homo sapiens, UniProt Q9UHX1).
T2 construct: endogenous in cells; host or cells: HeLa cell extract
T2 sequence (Q9UHX1 1-559): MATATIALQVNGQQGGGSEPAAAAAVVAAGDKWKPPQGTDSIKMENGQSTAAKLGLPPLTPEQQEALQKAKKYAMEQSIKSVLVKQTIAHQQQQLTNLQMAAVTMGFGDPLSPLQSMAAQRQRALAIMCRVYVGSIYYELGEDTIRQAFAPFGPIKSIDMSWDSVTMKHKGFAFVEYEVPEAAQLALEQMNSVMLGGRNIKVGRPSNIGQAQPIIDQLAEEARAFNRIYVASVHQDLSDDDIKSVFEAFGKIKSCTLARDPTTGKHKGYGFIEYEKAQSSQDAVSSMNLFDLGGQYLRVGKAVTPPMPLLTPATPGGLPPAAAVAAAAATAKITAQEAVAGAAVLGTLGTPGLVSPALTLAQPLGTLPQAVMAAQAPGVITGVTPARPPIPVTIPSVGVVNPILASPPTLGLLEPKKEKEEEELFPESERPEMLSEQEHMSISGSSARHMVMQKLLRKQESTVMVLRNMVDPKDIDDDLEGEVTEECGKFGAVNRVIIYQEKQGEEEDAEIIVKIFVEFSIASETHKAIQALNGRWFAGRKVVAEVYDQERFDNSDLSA

In assay [3] the target is T3, HeLa cell extract proteins (Homo sapiens, UniProt P52597).
T3 construct: endogenous in cells; host or cells: HeLa cell extract
T3 sequence (P52597 1-415): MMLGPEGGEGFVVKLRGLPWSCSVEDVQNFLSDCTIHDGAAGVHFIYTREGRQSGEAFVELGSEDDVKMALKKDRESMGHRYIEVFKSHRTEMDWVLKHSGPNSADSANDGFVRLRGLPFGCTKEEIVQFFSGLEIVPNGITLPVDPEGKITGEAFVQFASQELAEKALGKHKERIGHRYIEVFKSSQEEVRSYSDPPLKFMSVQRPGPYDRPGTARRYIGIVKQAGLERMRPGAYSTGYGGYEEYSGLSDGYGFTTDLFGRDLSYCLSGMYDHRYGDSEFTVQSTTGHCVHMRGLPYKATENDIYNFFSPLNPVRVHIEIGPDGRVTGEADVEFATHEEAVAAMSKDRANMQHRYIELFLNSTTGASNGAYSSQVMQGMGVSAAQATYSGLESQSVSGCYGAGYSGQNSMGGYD

The target in assay [4] is T4, HeLa cell extract proteins (Homo sapiens, UniProt Q96T76).
T4 construct: endogenous in cells; host or cells: HeLa cell extract
T4 sequence (Q96T76 1-1030): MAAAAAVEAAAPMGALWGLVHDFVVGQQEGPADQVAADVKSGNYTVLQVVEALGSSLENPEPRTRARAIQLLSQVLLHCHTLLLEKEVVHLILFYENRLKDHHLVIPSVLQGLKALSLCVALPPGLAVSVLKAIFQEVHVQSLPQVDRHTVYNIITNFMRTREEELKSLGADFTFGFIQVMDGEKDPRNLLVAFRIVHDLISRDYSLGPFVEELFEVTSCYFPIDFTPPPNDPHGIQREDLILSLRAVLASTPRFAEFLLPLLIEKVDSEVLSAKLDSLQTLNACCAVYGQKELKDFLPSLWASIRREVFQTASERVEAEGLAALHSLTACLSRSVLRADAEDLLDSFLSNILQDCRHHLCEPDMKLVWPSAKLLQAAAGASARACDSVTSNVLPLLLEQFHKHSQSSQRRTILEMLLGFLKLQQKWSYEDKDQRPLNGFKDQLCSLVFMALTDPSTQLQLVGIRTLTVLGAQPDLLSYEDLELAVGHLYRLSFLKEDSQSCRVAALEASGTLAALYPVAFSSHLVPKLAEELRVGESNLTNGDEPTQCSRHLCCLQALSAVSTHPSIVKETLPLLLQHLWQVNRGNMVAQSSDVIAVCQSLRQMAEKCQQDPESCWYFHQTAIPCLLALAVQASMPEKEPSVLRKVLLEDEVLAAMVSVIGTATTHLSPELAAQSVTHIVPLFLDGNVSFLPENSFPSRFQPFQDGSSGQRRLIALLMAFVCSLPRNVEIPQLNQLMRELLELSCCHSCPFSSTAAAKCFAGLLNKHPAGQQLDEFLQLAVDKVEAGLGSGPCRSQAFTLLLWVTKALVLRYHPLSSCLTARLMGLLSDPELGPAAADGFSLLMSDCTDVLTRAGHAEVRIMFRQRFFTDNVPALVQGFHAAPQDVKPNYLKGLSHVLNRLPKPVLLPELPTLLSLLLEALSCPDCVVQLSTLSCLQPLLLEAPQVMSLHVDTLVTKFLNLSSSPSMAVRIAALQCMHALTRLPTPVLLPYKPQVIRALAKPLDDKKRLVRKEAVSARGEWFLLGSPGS

[5] abbreviates: HeLa, protein RBM45 (ISOFORM 1 OF DEVELOPMENTALLY-REGULATED RNA-BINDING PROTEIN 1).

Read-outs that look alike come from different tables or passages of the source.

On to `CCCCCCOc1cccc(Cc2cnc(N)nc2N)c1` [compound 2], for which the “fold changes relative to vehicle control” value in assay [1] (HeLa, protein RBM45) turned out to be 0.99; in assay [2] (HeLa, protein PUF60), 1.05; in assay [3] (HeLa, protein HNRNPF) it was 0.88; in assay [4] (captured protein MMS19, HeLa), 0.94.
As for `NCCOCCOCC(=O)Nc1nc2ncc(CNc3ccc(C(=O)NC(CCC(=O)O)C(=O)O)cc3)nc2c(=O)[nH]1` (stereo not shown) [compound 6], the “fold changes relative to vehicle control” value in assay [1] (setting [5]) worked out at 1; in assay [2] (HeLa, captured protein PUF60), 0.92; in assay [3] (HeLa, captured protein HNRNPF), 0.92; in assay [4] (HeLa, protein MMS19), 0.97.
On to `CCCCCCOc1ccc(Cc2cnc(N)nc2N)cc1` [compound 1], for which the “fold changes relative to vehicle control” value in assay [1] (HeLa, protein RBM45) came to 1.06; in assay [2] (HeLa, protein PUF60), 1.01; in assay [3] (HeLa, protein HNRNPF), 0.95; in assay [4] (captured protein MMS19, HeLa), 0.79.
Consider `Nc1nc2c(c(=O)[nH]1)N(C=O)C(CNc1ccc(C(=O)N[C@@H](CCC(=O)O)C(=O)O)cc1)CN2` (stereo partly shown) [LEU, leucovorin], for which the “fold changes relative to vehicle control” value was 1.12 in assay [1] (setting [5]); 1.01 in assay [2] (HeLa, captured protein PUF60); 0.98 in assay [3] (HeLa, captured protein HNRNPF); 0.87 in assay [4] (HeLa, protein MMS19).
On the same counts, the results for `NCCCNc1ccc(C(=O)NC(CCC(=O)O)C(=O)O)cc1` (stereo not shown) [compound 7] are 0.96, 0.95, 0.95 and 1.02.
Take `Nc1nc2[nH]cc(CCc3ccc(C(=O)N[C@@H](CCC(=O)O)C(=O)O)cc3)c2c(=O)[nH]1` [PTX, pemetrexed]: the “fold changes relative to vehicle control” value was 1.04 in assay [1], 0.9 in assay [2], 0.87 in assay [3] and 0.82 in assay [4].
Turning to `Nc1nc2cccc(-c3ccccc3)c2n1Cc1ccc(Cl)c(Cl)c1` [compound 3], the “fold changes relative to vehicle control” value in assay [1] (HeLa, protein RBM45) worked out at 0.96; in assay [2] (HeLa, protein PUF60), 1.02; in assay [3] (HeLa, protein HNRNPF) it was 1.36; in assay [4] (captured protein MMS19, HeLa), 1.02.
